Measurements taken from patent US12410152B2, “Oxazole and thioazole-type cullin ring ubiquitin ligase compounds and uses thereof” (Proxygen GmbH, priority 2019, dated 2025).

Target: T1, CRL4B complex (CUL4B, DDB1) (Homo sapiens, UniProt Q13620+Q16531)
T1 construct: endogenous in cells; host or cells: KBM7 WT cells
Experiment: Chemoproteomics with IC021313.2 photoaffinity probe, competitive setup
Format: binding
Details: KBM7 WT; 100 μM competitor, 10 μM photoprobe
From the text: Another explanation would be (2) functional redundancy, where our identified small-molecules modulate more than one SR in an interchangeable manner (either directly or indirectly). Lastly (3), it could be that the tested molecules endow a neomorphic function of the CRL4B complex by binding to a non-SR component. In order to disentangle these hypotheses, and to test if the assayed molecules would directly bind to/physically engage the CRL4B complex, IC021313.2 was derivatized with a moiety consisting of a photoactive diazirine group and an alkyl handle (FIG. 7). The ensuing functionalized molecule was used to purify proteins physically binding to the compound (“interactors”). In order to gain increased confidence, a competitive setup was chosen where cells were initially treated with the parental, non-modified compound or vehicle control. Compound treatment (1h) at excess concentrations of 100 μM was expected to saturate binding sites. Subsequently, cells (both vehicle- and compound-treated) were treated with the functionalized probe for 1 h at 10 μM, followed by UV-crosslinking. Next, cells were lysed and a biotin-azide linker was attached via click chemistry, and interacting proteins (“interactors”) were purified via biotin enrichment over a Streptavidin column and subjected to unbiased detection via label-free proteomics analysis. […]

T1 sequence (Q13620 whole entry): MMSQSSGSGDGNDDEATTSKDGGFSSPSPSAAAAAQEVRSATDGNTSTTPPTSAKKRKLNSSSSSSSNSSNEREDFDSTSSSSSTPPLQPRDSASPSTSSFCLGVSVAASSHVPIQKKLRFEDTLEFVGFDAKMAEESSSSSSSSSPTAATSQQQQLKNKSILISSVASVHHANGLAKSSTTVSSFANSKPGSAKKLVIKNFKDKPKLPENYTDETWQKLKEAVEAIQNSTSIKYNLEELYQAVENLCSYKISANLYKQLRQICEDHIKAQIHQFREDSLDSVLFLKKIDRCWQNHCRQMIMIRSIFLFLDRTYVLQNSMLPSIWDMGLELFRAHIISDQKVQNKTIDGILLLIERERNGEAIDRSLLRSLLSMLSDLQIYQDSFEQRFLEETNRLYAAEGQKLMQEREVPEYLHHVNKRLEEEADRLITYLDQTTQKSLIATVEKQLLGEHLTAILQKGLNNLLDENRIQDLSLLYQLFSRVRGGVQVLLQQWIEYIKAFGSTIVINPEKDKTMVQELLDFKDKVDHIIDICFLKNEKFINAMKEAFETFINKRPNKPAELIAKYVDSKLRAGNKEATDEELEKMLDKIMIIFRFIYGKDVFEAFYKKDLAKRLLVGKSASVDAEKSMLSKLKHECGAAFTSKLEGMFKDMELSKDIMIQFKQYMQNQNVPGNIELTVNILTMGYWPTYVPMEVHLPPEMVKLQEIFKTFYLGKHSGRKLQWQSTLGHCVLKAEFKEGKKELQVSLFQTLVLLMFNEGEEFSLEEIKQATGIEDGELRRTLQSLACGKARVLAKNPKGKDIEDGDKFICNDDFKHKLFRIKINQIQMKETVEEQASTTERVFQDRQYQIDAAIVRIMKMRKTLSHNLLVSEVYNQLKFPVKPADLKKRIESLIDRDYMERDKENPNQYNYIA
T1 sequence (Q16531 2-1140 limits assumed): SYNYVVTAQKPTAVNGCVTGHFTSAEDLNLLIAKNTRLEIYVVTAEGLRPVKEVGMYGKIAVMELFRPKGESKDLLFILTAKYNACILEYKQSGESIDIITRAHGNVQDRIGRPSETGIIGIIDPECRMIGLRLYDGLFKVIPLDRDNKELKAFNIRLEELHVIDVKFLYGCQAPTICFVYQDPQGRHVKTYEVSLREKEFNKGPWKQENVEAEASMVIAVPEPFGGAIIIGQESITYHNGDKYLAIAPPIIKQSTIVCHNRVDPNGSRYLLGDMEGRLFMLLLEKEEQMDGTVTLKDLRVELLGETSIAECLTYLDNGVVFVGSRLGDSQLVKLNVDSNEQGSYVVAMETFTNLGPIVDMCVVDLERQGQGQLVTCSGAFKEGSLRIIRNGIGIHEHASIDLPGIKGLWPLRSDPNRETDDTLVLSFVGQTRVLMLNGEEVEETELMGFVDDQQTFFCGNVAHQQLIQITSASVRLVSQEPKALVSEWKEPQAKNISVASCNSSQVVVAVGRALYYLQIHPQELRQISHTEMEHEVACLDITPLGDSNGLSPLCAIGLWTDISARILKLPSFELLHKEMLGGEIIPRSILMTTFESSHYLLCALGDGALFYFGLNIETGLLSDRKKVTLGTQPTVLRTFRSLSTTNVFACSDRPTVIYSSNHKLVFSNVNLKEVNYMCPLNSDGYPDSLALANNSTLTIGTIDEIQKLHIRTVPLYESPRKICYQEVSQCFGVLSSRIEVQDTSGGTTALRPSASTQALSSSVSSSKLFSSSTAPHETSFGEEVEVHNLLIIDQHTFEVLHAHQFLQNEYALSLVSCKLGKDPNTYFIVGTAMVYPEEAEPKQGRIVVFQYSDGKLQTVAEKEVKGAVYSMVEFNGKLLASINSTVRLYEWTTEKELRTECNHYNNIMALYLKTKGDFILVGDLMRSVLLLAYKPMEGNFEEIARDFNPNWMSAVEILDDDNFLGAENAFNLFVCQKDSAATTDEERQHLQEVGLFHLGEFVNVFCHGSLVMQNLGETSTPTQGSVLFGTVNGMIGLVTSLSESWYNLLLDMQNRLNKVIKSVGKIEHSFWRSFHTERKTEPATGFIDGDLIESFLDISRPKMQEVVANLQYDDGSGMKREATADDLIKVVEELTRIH
T1 sequence (Q9NYV4 whole entry partner): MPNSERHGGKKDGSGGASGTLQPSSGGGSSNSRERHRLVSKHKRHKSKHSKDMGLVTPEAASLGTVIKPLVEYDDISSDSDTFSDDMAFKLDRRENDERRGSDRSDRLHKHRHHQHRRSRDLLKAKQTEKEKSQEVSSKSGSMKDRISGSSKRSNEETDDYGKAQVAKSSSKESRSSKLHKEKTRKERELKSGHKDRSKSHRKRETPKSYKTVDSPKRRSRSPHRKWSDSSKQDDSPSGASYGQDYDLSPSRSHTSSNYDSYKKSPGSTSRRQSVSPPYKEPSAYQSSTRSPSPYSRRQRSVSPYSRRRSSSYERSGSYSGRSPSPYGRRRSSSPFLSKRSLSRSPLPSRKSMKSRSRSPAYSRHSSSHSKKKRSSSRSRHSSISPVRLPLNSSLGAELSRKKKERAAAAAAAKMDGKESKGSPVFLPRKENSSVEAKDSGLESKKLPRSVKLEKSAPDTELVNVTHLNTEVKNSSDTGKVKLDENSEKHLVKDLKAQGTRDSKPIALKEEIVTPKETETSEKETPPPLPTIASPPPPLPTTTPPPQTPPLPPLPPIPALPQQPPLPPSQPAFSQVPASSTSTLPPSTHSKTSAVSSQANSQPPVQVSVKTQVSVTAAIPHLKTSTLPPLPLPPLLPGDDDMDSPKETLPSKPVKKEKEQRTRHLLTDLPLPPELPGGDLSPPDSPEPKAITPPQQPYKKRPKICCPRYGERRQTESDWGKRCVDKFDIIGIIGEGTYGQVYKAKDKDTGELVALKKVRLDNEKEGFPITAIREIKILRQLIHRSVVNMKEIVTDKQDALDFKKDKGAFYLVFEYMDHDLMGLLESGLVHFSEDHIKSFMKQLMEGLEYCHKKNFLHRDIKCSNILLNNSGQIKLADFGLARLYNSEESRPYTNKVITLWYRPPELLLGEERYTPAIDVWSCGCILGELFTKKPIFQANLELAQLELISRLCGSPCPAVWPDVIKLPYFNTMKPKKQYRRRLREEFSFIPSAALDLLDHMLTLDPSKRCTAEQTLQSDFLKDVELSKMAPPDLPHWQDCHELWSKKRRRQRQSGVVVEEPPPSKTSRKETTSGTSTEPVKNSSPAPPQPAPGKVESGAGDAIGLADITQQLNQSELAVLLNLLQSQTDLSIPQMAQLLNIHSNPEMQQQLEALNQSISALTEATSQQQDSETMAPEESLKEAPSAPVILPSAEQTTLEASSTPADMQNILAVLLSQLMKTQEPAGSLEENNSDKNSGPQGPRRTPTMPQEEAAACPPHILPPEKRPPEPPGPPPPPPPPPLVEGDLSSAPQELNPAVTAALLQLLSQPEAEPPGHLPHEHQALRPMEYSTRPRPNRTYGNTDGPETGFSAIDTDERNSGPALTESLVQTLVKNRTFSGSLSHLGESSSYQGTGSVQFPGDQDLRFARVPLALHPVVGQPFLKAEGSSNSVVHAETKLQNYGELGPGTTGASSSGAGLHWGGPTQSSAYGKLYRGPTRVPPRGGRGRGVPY
T1 sequence (O75909 whole entry partner): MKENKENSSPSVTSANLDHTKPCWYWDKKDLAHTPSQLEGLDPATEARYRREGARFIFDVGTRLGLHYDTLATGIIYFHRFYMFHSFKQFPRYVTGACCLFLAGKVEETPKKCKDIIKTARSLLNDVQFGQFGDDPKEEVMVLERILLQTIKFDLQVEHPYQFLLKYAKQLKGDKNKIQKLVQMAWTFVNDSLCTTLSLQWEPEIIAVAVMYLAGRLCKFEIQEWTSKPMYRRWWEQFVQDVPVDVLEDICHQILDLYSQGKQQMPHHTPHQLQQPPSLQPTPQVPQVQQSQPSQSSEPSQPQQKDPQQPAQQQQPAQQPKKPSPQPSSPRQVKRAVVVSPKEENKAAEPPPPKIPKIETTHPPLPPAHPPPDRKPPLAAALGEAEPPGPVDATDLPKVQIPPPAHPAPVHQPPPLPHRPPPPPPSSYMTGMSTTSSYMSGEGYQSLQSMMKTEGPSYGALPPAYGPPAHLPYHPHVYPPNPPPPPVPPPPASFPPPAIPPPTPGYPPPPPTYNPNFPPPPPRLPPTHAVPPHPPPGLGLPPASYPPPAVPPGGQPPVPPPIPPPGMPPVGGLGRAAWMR

O=C(CSc1nc2ccccc2[nH]1)Nc1ccc(Cl)cn1 [IC021313.2]
physical engagement of CRL4B complex (competitive photoprobe pulldown, MS): physically engages with a CRL4B complex
